# Assay results from US7745656B2, “Stable no-delivering compounds” (Duke University, priority 1998, dated 2010).
# System: E. coli cells (pTC 190)
# Test: Bacteriostatic test: nitrosylated compound solution sprayed onto E. coli culture plates
# Format: cell-based
# Protocol: Nitrosated 3-mercapto-1,2-propanediol was prepared with TBN bed in the Example 1. The nitrosylated compound was dissolved in 10 mL of deionized water (0.16 M) that had been passed through a CHELEX 100 column and bubbled with argon for 30 minutes. The resulting solution was red.
# E. coli cells (pTC 190) were plated onto the culture plates and grown overnight at 40° C. The E. coli cells contained a plasmid encoding for ampicillin resistance. The solution was then sprayed onto a culture plate (LB/Amp/Glucose).
# This plate was then sprayed with the nitrosylated compound solution at the 24th hour.
structure (smiles),measurement,setting,value
"O=NSCC(O)CO (stereo not drawn) [nitrosylated 3-mercapto-1,2-propanediol]",Bacterial growth on culture plate sprayed with the compound solution,"0.16 M in deionized water, compound prepared with TBN, LB/Amp/Glucose plate, read after 24 hours","growth of a few colonies, all localized on one side of the plate"
same,"Bacterial growth on plate with an established E. coli lawn, sprayed at the 24th hour","0.16 M solution sprayed on a continuous lawn, read after another 24 hours",lawn of colonies that was approximately as dense as prior to application
same,Overall antibacterial result,conclusion of Example 3,bacteriostatic
